Test results reported in US9062041B2 (Bayer Intellectual Property GmbH, priority 2011, dated 2015).
Values belong to the molecule of their own block, whether it stands above or below them.

Columns and labels:
Type in all cases: cell-based
[1] = molecular target: EP2 subtype of the human PGE2 receptor (Homo sapiens, UniProt P43116); experiment: cAMP antagonism test on the human EP2 receptor (HTRF cAMP detection); details: hEP2 receptor, read-out: Antagonism hEP2 IC50
Summary of the method: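 Read-out is a competitive HTRF for cAMP: lysate cAMP displaces cAMP-d2 from Eu cryptate-labelled antibody, and antagonism raises the 665/620 nm ratio. Compound (0.8 nM–16.5 μM) added to EP2 cells 20 min at RT before 60 min PGE2 challenge (3× stock 1.5 nM) with IBMX, followed by 20 min lysis.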

[2] = molecular target: EP4 subtype of the human PGE2 receptor (Homo sapiens, UniProt P35408); experiment: cAMP antagonism test on the human EP4 receptor (HTRF cAMP detection); details: selectivity towards hEP4, IC50 measured by cAMP antagonism test
EP4 subtype of the human PGE2 receptor, sequence (P35408 whole entry): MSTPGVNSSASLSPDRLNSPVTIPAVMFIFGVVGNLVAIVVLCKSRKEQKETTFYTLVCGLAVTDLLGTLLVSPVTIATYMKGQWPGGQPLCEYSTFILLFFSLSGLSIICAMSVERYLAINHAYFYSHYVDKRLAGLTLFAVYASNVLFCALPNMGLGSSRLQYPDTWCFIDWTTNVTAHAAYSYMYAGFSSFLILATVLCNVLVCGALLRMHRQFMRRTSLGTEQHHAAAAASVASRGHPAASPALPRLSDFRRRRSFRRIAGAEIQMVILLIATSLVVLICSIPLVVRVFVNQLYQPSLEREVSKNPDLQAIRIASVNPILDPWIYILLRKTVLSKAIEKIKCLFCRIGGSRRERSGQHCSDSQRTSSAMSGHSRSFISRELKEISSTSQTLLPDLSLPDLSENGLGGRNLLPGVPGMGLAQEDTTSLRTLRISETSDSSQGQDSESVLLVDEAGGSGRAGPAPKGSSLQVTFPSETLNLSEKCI
Summary of the method: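 Competitive HTRF cAMP read-out (cAMP-d2 vs Eu-cryptate anti-cAMP antibody, 665/620 nm ratio) on lysed human EP4 cells. Compound (0.8 nM–16.5 μM) applied 20 min at RT before 60 min PGE2 challenge (3× solution 0.3 nM, IBMX present); 20 min lysis precedes reading.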

human PGD receptor = molecular target: T1, human PGD receptor (Homo sapiens, UniProt Q13258); experiment: cAMP antagonism test on the human prostaglandin D receptor (HTRF cAMP detection); details: selectivity towards hDP, IC50 measured by cAMP antagonism test
T1 sequence (Q13258 1-359): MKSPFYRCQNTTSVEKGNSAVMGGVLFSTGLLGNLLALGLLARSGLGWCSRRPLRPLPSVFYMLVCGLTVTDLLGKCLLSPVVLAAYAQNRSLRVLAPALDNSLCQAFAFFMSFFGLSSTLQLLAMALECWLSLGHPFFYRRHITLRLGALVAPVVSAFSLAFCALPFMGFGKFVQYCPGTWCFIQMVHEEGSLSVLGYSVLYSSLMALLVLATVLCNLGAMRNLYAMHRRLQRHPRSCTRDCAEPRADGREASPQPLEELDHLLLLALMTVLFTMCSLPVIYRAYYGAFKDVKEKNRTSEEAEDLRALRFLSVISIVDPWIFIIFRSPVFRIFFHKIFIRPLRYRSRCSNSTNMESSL
Summary of the method: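 HTRF competition read-out (665/620 nm ratio ×10000), where higher FRET means less cAMP, i.e. antagonism. Compounds (0.8 nM–16.5 μM) were preincubated 20 min at RT with cells and cAMP-d2, PGD2 (3× solution, 6 nM) in IBMX-containing PBS added for 30 min at RT, then cells lysed 20 min.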

EP2 subtype of the human PGE2 receptor, sequence (P43116 whole entry): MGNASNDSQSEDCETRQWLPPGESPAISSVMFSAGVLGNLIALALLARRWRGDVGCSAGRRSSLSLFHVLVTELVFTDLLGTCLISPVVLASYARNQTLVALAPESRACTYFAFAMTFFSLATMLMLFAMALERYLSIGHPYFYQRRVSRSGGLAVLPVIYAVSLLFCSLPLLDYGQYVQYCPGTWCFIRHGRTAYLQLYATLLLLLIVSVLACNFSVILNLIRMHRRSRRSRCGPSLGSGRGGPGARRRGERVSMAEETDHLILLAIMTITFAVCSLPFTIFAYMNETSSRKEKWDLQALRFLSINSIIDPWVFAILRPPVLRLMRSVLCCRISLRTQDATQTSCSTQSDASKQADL

SMILES: COCCNC(=O)c1ccc2nn(CC3CCN(C(=O)c4ccc(Oc5ccc(F)cc5)cc4)CC3)cc2c1OCC(F)(F)F [Example 233, 2-({1-[4-(4-fluorophenoxy)benzoyl]piperidin-4-yl}methyl)-N-(2-methoxyethyl)-4-(2,2,2-trifluoroethoxy)-2H-indazol-5-carboxamide]
IC50 [1]: 39.7 nM
Selectivity hEP2/hEP4 [2]: xxx (xxx > 100)
Selectivity hEP2/hDP (human PGD receptor): xxx (xxx > 100)

SMILES: Cc1cc2nn(CC3CCN(C(=O)c4cccc(S(F)(F)(F)(F)F)c4)CC3)cc2cc1C(=O)NCCN1CCOCC1 [Example 81, 6-methyl-N-(2-morpholinoethyl)-2-({1-[3-(pentafluoro-λ^6-sulphanyl)benzoyl]-piperidin-4-yl}-methyl)-2H-indazol-5-carboxamide]
IC50 [1]: 513 nM
Selectivity hEP2/hEP4 [2]: xx (xx: 10-100)
Selectivity hEP2/hDP (human PGD receptor): xx (xx: 10-100)

SMILES: COCCNC(=O)c1cc2cn(CC3CN(C(=O)c4cc(F)cc(F)c4)C3)nc2cc1C [Example 179, 2-{[1-(3,5-Difluorobenzoyl)azetidin-3-yl]methyl}-N-(2-methoxyethyl)-6-methyl-2H-indazol-5-carboxamide]
IC50 [1]: 2610 nM
Selectivity hEP2/hEP4 [2]: x (x: 1-10)
Selectivity hEP2/hDP (human PGD receptor): x (x: 1-10)

SMILES: Cc1c(C(=O)NCC(F)(F)F)ccc2nn(CC3CN(C(=O)c4ccc(C(F)(F)F)cc4F)C3)cc12 [Example 131, 2-({1-[2-fluoro-4-(trifluoromethyl)benzoyl]azetidin-3-yl}methyl)-4-methyl-N-(2,2,2-trifluoroethyl)-2H-indazol-5-carboxamide]
IC50 [1]: 228 nM
Selectivity hEP2/hEP4 [2]: xx (xx: 10-100)
Selectivity hEP2/hDP (human PGD receptor): xx (xx: 10-100)

SMILES: Cc1c(C(=O)NCC(F)(F)F)ccc2nn(CC3CCN(C(=O)c4ccc(Oc5ccc(Cl)cc5)cc4)CC3)cc12 [Example 284, 2-({1-[4-(4-chlorophenoxy)benzoyl]piperidin-4-yl}methyl)-4-methyl-N-(2,2,2-trifluoroethyl)-2H-indazol-5-carboxamide]
IC50 [1]: 56.4 nM
Selectivity hEP2/hEP4 [2]: xxx (xxx > 100)
Selectivity hEP2/hDP (human PGD receptor): xxx (xxx > 100)

SMILES: COCCNC(=O)c1ccc2nn(CC3CCN(C(=O)c4cccc(C)c4)CC3)cc2c1C [Example 27, N-(2-methoxyethyl)-4-methyl-2-{[1-(3-methylbenzoyl)-piperidin-4-yl]-methyl}-2H-indazol-5-carboxamide]
IC50 [1]: 19.3 nM
Selectivity hEP2/hEP4 [2]: xxx (xxx > 100)
Selectivity hEP2/hDP (human PGD receptor): xxx (xxx > 100)

SMILES: Cc1c(C(=O)NCCOC(C)C)ccc2nn(CC3CCN(C(=O)c4ccc(Cl)cc4)CC3)cc12 [Example 96, 2-{[1-(4-chlorobenzoyl)piperidin-4-yl]methyl}-N-(2-isopropoxyethyl)-4-methyl-2H-indazol-5-carboxamide]
IC50 [1]: 9.42 nM
Selectivity hEP2/hEP4 [2]: xxx (xxx > 100)
Selectivity hEP2/hDP (human PGD receptor): xxx (xxx > 100)

SMILES: COCCNC(=O)c1ccc2nn(CC3CCN(C(=O)c4nc(-c5ccccc5)no4)CC3)cc2c1C [Example 352, N-(2-methoxyethyl)-4-methyl-2-({1-[(3-phenyl-1,2,4-oxadiazol-5-yl)carbonyl]-piperidin-4-yl}methyl)-2H-indazol-5-carboxamide]
IC50 [1]: 21.7 nM
Selectivity hEP2/hEP4 [2]: xxx (xxx > 100)
Selectivity hEP2/hDP (human PGD receptor): xxx (xxx > 100)

SMILES: CCOc1c(C(=O)NCCOC)ccc2nn(CC3CN(C(=O)c4ccc(S(F)(F)(F)(F)F)cc4)C3)cc12 [Example 277, 4-ethoxy-N-(2-methoxyethyl)-2-({1-[4-(pentafluoro-λ^6-sulphanyl)benzoyl]-azetidin-3-yl}methyl)-2H-indazol-5-carboxamide]
IC50 [1]: 47.9 nM
Selectivity hEP2/hEP4 [2]: xxx (xxx > 100)
Selectivity hEP2/hDP (human PGD receptor): xxx (xxx > 100)

SMILES: COCCNC(=O)c1ccc2nn(CC3CCN(C(=O)c4cc(-c5ccccc5)no4)CC3)cc2c1C [Example 13, N-(2-methoxyethyl)-4-methyl-2-({1-[(3-phenylisoxazol-5-yl)carbonyl]piperidin-4-yl}methyl)-2H-indazol-5-carboxamide]
IC50 [1]: 35.9 nM
Selectivity hEP2/hEP4 [2]: xxx (xxx > 100)
Selectivity hEP2/hDP (human PGD receptor): xxx (xxx > 100)

SMILES: Cc1c(C(=O)NCCSC(F)(F)F)ccc2nn(CC3CN(C(=O)c4ccc(C(F)(F)F)cc4F)C3)cc12 [Example 134, 2-({1-[2-fluoro-4-(trifluoromethyl)benzoyl]azetidin-3-yl}methyl)-4-methyl-N-{2-[(trifluoromethyl)sulphanyl]ethyl}-2H-indazol-5-carboxamide]
IC50 [1]: 56.5 nM
Selectivity hEP2/hEP4 [2]: xxx (xxx > 100)
Selectivity hEP2/hDP (human PGD receptor): xxx (xxx > 100)

Next, values leading:

IC50 [1]: 3.66 nM
Selectivity hEP2/hEP4 [2]: xxx (xxx > 100)
Selectivity hEP2/hDP (human PGD receptor): xxx (xxx > 100)
SMILES: COCCNC(=O)c1ccc2nn(CC3CN(C(=O)c4ccc(Oc5ccc(C(F)(F)F)cc5)cc4)C3)cc2c1C [Example 125, N-(2-methoxyethyl)-4-methyl-2-[(1-{4-[4-(trifluoromethyl)phenoxy]benzoyl}azetidin-3-yl)methyl]-2H-indazol-5-carboxamide]

IC50 [1]: 9.33 nM
Selectivity hEP2/hEP4 [2]: xxx (xxx > 100)
Selectivity hEP2/hDP (human PGD receptor): xxx (xxx > 100)
SMILES: Cc1c(C(=O)NCCOCC(F)(F)F)ccc2nn(CC3CN(C(=O)c4ccc(Cl)cc4)C3)cc12 [Example 162, 2-{[1-(4-chlorobenzoyl)azetidin-3-yl]methyl}-4-methyl-N-[2-(2,2,2-trifluoro-ethoxy)ethyl]-2H-indazol-5-carboxamide]

IC50 [1]: 6.42 nM
Selectivity hEP2/hEP4 [2]: xxx (xxx > 100)
Selectivity hEP2/hDP (human PGD receptor): xxx (xxx > 100)
SMILES: COCCNC(=O)c1ccc2nn(CC3CCN(C(=O)c4ccc(C(C)(C)C)cc4)CC3)cc2c1C [Example 333, 2-{[1-(4-tert-butylbenzoyl)piperidin-4-yl]methyl}-N-(2-methoxyethyl)-4-methyl-2H-indazol-5-carboxamide]

IC50 [1]: 5.29 nM
Selectivity hEP2/hEP4 [2]: xxx (xxx > 100)
Selectivity hEP2/hDP (human PGD receptor): xxx (xxx > 100)
SMILES: COCCNC(=O)c1ccc2nn(CC3CCN(C(=O)c4ccc(SC(F)(F)F)cc4)CC3)cc2c1C [Example 57, N-(2-methoxyethyl)-4-methyl-2-[(1-{4-[(trifluoromethyl)sulphanyl]benzoyl}piperidin-4-yl)methyl]-2H-indazol-5-carboxamide]

IC50 [1]: 5.47 nM
Selectivity hEP2/hEP4 [2]: xxx (xxx > 100)
Selectivity hEP2/hDP (human PGD receptor): xxx (xxx > 100)
SMILES: COCCNC(=O)c1ccc2nn(CC3CCN(C(=O)c4ccc(Br)c(C)c4)CC3)cc2c1C [Example 332, 2-{[1-(4-bromo-3-methylbenzoyl)piperidin-4-yl]methyl}-N-(2-methoxyethyl)-4-methyl-2H-indazol-5-carboxamide]

IC50 [1]: 7.88 nM
Selectivity hEP2/hEP4 [2]: xxx (xxx > 100)
Selectivity hEP2/hDP (human PGD receptor): xxx (xxx > 100)
SMILES: COCCNC(=O)c1ccc2nn(CC3CCN(C(=O)c4ccc(Oc5nccc(C(F)(F)F)n5)cc4)CC3)cc2c1C [Example 347, N-(2-methoxyethyl)-4-methyl-2-{[1-(4-{[4-(trifluoromethyl)pyrimidin-2-yl]-oxy}benzoyl)piperidin-4-yl]methyl}-2H-indazol-5-carboxamide]

IC50 [1]: 6.84 nM
Selectivity hEP2/hEP4 [2]: xxx (xxx > 100)
Selectivity hEP2/hDP (human PGD receptor): xxx (xxx > 100)
SMILES: COCCNC(=O)c1ccc2nn(CC3CCN(C(=O)c4ccc(-c5ccc(OC)cc5)cc4)CC3)cc2c1C [Example 351, 2-({1-[(4′-methoxybiphenyl-4-yl)carbonyl]piperidin-4-yl}methyl)-N-(2-methoxy-ethyl)-4-methyl-2H-indazol-5-carboxamide]

IC50 [1]: 3.14 nM
Selectivity hEP2/hEP4 [2]: xxx (xxx > 100)
Selectivity hEP2/hDP (human PGD receptor): xxx (xxx > 100)
SMILES: COCCNC(=O)c1ccc2nn(CC3CCN(C(=O)c4ccc(-c5ccc(F)cc5)c(C)c4)CC3)cc2c1C [Example 390, 2-({1-[(4′-fluoro-2-methylbiphenyl-4-yl)carbonyl]piperidin-4-yl}methyl)-N-(2-methoxyethyl)-4-methyl-2H-indazol-5-carboxamide]
